Experimental data as given in the NIST ThermoML archive (doi:10.1021/je060271a).

Conditions: 323.14 K, Liquid, Vibrating tube method

CCCCCCC(=O)OCC(COC(=O)CCCCCC)(COC(=O)CCCCCC)COC(=O)CCCCCC [pentaerythritol tetraheptanoate]
Conditions	mass density [kg/m3]
13822 kPa	964.8
13850 kPa	964.7
13884 kPa	964.8
13912 kPa	964.9
13940 kPa	965
13969 kPa	964.9
14002 kPa	964.9
14031 kPa	964.9
14065 kPa	964.9
14094 kPa	964.9
14124 kPa	965
14159 kPa	964.9
14217 kPa	964.9
14254 kPa	965
14374 kPa	965
14411 kPa	965.1
14441 kPa	965.3
14478 kPa	965.2
14509 kPa	965.3
14540 kPa	965.3
14571 kPa	965.2
14777 kPa	965.3
14810 kPa	965.4
14849 kPa	965.5
14883 kPa	965.4
15305 kPa	965.7
15364 kPa	965.8
15393 kPa	965.8
15404 kPa	965.8
15412 kPa	965.8
15421 kPa	965.8
15430 kPa	965.8
15440 kPa	965.9
15449 kPa	965.8
15460 kPa	965.9
15468 kPa	966
15477 kPa	965.9
15488 kPa	965.8
15497 kPa	965.8
15506 kPa	965.9
15514 kPa	965.8
15525 kPa	965.8
15534 kPa	966
15543 kPa	965.9
15554 kPa	965.9
15563 kPa	965.9
15573 kPa	965.9
15582 kPa	966
15591 kPa	965.9
15600 kPa	966
15611 kPa	966
15620 kPa	965.9
15658 kPa	966.1
15667 kPa	966
15678 kPa	966
15687 kPa	966
15698 kPa	966.1
15716 kPa	966.2
15756 kPa	966.1
15853 kPa	966.1
15873 kPa	966.2
15882 kPa	966.1
15893 kPa	966.1
15912 kPa	966.1
15923 kPa	966
15933 kPa	966.2
15942 kPa	966.2
16746 kPa	966.7
16758 kPa	966.5
16768 kPa	966.7
16779 kPa	966.7
16792 kPa	966.6
16801 kPa	966.7
16813 kPa	966.6
16924 kPa	966.8
16935 kPa	966.8
16947 kPa	966.8
16960 kPa	966.9
16970 kPa	966.9
16981 kPa	966.8
16993 kPa	966.8
17004 kPa	966.9
17223 kPa	966.9
17236 kPa	967
17329 kPa	967.1
17342 kPa	967.1
17353 kPa	967.1
17364 kPa	967.1
17378 kPa	967.1
17401 kPa	967
17522 kPa	967
17659 kPa	967.3
17673 kPa	967.2
17685 kPa	967.2
17697 kPa	967.3
17708 kPa	967.1
17722 kPa	967.2
17734 kPa	967.3
17784 kPa	967.3
17798 kPa	967.3
17885 kPa	967.4
17912 kPa	967.5
17924 kPa	967.3
17938 kPa	967.4
17950 kPa	967.5
18001 kPa	967.4
18171 kPa	967.5
18199 kPa	967.5
18211 kPa	967.6
18226 kPa	967.6
18239 kPa	967.6
18252 kPa	967.6
